# From US9249147B2, “Tyrosine kinase inhibitors” (CHEMBRIDGE CORPORATION, priority 2008, dated 2016)
# Values joined by “and” are separate entries in the source; they are usually repeats but may differ in a detail not shown here. Identical values can stand only once. Like-named read-outs stand apart in the source and are kept apart here.
# What was measured:
# [1] = Plasma Protein Binding (Human), equilibrium dialysis; assay type: in vitro ADME; conditions: 1.0E−05 M; for % Protein Bound, Mean: equilibrium dialysis; for % Protein Bound, 1st/2nd: individual data
# IRK = target: T1, IRK (Homo sapiens, UniProt P06213); assay: IRK (insulin receptor kinase) assay; assay type: biochemical
# T1 construct: 6×His- or GST-tagged kinase domain fragments of the corresponding RTKs expressed in baculovirus system; host or cells: baculovirus system
# Description: To determine inhibition of several tyrosine kinases, such as IGF1R, InsR, Alk, TrkA and Jak2, kinase assays are conducted using either Kinase-Glo (Promega) or AlphaScreen (PerkinElmer) kinase assay platforms. The Kinase-Glo Luminescent Kinase Assay is a homogeneous method for measuring kinase activity by determining the amount of ATP remaining after a kinase reaction. The luminescent signal is proportional to the amount of ATP and inversely proportional to the amount of kinase activity. Tyrosine kinase PT66 AlphaScreen Assay is a high-sensitivity homogeneous, anti-phosphotyrosine antibody-mediated luminescent proximity method measuring incorporation of phosphate in synthetic poly(Glu-Tyr) substrate. The kinase preparations used consist of purified recombinant, 6×His- or GST-tagged kinase domain fragments of the corresponding RTKs expressed in baculovirus system.
# Compounds with a range of concentrations 40 μM, 20 μM, 10 μM, 5 μM, 2.5 μM, 1.25 μM, 0.625 μM, 0.3125 μM, 0.15625 μM and 0.078125 μM were incubated with NPM-ALK, which was produced in insect cells as a 6×HIS-tagged fusion protein and purified using nickel-charged resin chromatography, for 30 minutes at RT in the presence of 10 μM ATP and 7.0 ng biotinylated poly-GT. A 1:1 mixture of […] and donor beads was then added to the reaction and incubated for an additional 60 minutes at RT. The assay was conducted on a MultiPROBE liquid handling workstation (PerkinElmer) in a 384-well plate format with a total reaction volume of 40 μL per well. Working stocks of all compounds were dissolved in 100% DMSO and serial dilutions of the compounds were performed using kinase buffer (50 mM Tris-HCl (pH 7.5), 5 mM MgCl2, 5 mM MnCl2, 2 mM DTT (added freshly before use), 0.01% Tween-20) containing 5% DMSO. […] Data were collected as optical readings at 520-680 nm on a Fusion™ microplate analyzer (PerkinElmer), and IC50 and Ki values calculated using PRISM3.0 software (GraphPad Software, Inc., San Diego, Calif.). The same assay was also used with minor modifications to assess the IC50 and Ki values for selected compounds against five other tyrosine kinases (IRK, IGF1R, Flt3, Abl, Src), all of which were purchased from commercial vendors. PolyGT-Biotin was bought from CIS Biointernational Cat. #61GT0BLD; ATP—from Sigma Cat. # A7699; sodium orthovanadate—from Sigma Cat. #S-6508; phosphotyrosine (PT66) assay kit from PerkinElmer Cat. #6760602M; automated workstation tips (20 μL): PerkinElmer Cat. #6000657; and OptiPlate-384 (white)—from PerkinElmer Cat. #6007299.
# [2] = Liver microsome stability, Mouse LM-P1 / MLM; assay type: in vitro ADME; conditions: for half-life / microsomal CLint: mouse, liver microsomes; for microsomal CLint: read-out: Mouse LM-P1 CL
# U937 = assay: Cellular IC50, U937; assay type: cell-based; conditions: Homo sapiens, U-937; Table 3A
# ALK = ALK (Homo sapiens, UniProt Q9UM73); assay: ALK kinase assay (Kinase-Glo / AlphaScreen, purified NPM-ALK); assay type: biochemical; parameters: fused to the complete intracytoplasmic portion of ALK containing the functional tyrosine kinase domain; 6xHis; made in house; host or cells: insect cells; the other entry of the earlier key: NPM1 (P06748, Nucleophosmin)
# [3] = Liver microsome stability, Human LM-P1 / HLM; assay type: in vitro ADME; conditions: for half-life / microsomal CLint: human, liver microsomes; for microsomal CLint: read-out: Human LM-P1 CL
# Description: Metabolic stability of compound (II) (labeled as CRL241 below) in vitro has been tested in a standard in vitro microsomal stability assay in human microsomes (Cerep Study 13170).
# TRKA = TRKA (Homo sapiens, UniProt P04629); assay: TRKA kinase assay; assay type: biochemical; parameters: 6×His- or GST-tagged kinase domain fragments of the corresponding RTKs expressed in baculovirus system; host or cells: baculovirus system
# Karpas299 = assay: Cell proliferation inhibition, ALCL line Karpas299; assay type: cell-based; conditions: Homo sapiens, KARPAS-299; Table 3A; read-out: Cellular IC50 K-299
# Description: The IL-3-dependent lymphoid cell line BaF3 or BaF3 rendered IL-3-independent by engineered expression of NPM-ALK were used in parallel to test each candidate inhibitor. Control wells contained DMSO solvent without test compound. Specific inhibition of ALK signaling is indicated in the assay by impairment of NPM-ALK-expressing BaF3 cell growth without alterations in the growth of parental BaF3. This colorimetric assay of cell proliferation and viability is based upon reduction of the yellow monotetrazolium salt XTT to a water-soluble orange formazan dye, a reaction catalyzed by mitochondrial dehydrogenases in living cells only (Cell Proliferation Kit II, Cat. #1 465 015, Roche Biochemicals). In addition to testing compounds for their ability to impair the growth of BaF3 cells engineered to express NPM-ALK, the NPM-ALK-positive human lymphoma cell line Karpas-299 (Deutsche Sammlung von Mikroorganismen and Zellkulturen GmbH (DSMZ) no. ACC 31), the human BCR-ABL-positive chronic myeloid leukemia cell line K562 (American Type Culture Collection (ATCC) no. CCL-243), and the human T-cell leukemia line Jurkat (DSMZ no. ACC 282) were tested in these assays.
# Each compound stock in 100% DMSO was first diluted using 8% DMSO/culture medium to produce a working stock of 250 μM compound. This working stock was then used to perform serial 1:1 dilutions (i.e., 125 μM, 62.5 μM, 31.25 μM, 15.625 μM, 7.8125 μM, and 3.90625 μM) using DMSO-free culture medium. Twenty (20) μL of each of these dilutions was then added to the cells (2×10^4 cells in 80 μL culture medium per 96-well) to obtain the final test compound concentrations (i.e., 25 μM, 12.5 μM, 6.25 μM, 3.125 μM, 1.5625 μM, and 0.78125 μM).
# Cell proliferation inhibition assays were run for compound (II) with the five target NPM-ALK-dependent ALCL cell lines (Karpas 299, SuDHL-1, JB6, SupM2, UConn) and 12 unrelated cell lines (HEK293, CHO-K1, MCF7, HepG2, H292, H520, H1581, H596, H522, CHA-GO-K1, UMC-11, SK-MES1). […] The pronounced target cell-killing effect is also observed (molecular mechanisms to be determined).
# [4] = Liver microsome stability, Rat LM-P1; assay type: in vitro ADME; conditions: liver microsomes; for microsomal CLint: read-out: Rat LM-P1 CL
# [5] = Aqueous Solubility (PBS, pH 7.4); assay type: physicochemical; conditions: pH 7.4, 2.0E−04 M; for solubility: pH 7.4, PBS
# [6] = Partition Coefficient (Log D, n-octanol/PBS, pH 7.4); assay type: physicochemical; conditions: 1.0E−04 M
# IGF1R = target: T2, IGF1R (Homo sapiens, UniProt P08069); assay: IGF1R kinase assay; assay type: biochemical; conditions: Table 1; read-out: IGF1R IC50
# T2 construct: 6×His- or GST-tagged kinase domain fragments of the corresponding RTKs expressed in baculovirus system; host or cells: baculovirus system
# Summary of the method: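 The AlphaScreen PT66 format of the NPM-ALK assay was applied with minor modifications to commercial recombinant His/GST-tagged kinase domains. Compound (0.078125–40 μM) was incubated 30 min at RT with 10 μM ATP and biotinylated poly-GT in Tris pH 7.5/MgCl2/MnCl2/DTT buffer, then beads 60 min. Read at 520–680 nm; IC50 and Ki derived.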
# [7] = Table 8D, read-out: GTx-ALK IC50
# Chain of TRKA (P04629 510-781 limits assumed): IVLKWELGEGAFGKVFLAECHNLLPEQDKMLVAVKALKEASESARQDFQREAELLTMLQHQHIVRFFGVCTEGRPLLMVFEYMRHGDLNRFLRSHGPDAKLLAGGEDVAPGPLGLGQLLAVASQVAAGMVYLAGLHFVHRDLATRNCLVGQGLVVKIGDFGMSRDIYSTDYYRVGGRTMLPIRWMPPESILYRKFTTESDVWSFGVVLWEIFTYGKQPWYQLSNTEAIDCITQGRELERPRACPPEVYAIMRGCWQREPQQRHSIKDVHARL
# T2 sequence (P08069 999-1274 limits assumed): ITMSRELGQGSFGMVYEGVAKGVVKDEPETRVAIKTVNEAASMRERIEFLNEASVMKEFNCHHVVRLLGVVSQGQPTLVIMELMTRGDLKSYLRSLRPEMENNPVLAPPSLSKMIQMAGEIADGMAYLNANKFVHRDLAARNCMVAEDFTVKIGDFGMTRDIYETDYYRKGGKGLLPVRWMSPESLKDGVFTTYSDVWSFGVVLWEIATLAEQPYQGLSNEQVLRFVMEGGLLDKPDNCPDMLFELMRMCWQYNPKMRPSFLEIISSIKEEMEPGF
# T1 sequence (P06213 1023-1298 limits assumed): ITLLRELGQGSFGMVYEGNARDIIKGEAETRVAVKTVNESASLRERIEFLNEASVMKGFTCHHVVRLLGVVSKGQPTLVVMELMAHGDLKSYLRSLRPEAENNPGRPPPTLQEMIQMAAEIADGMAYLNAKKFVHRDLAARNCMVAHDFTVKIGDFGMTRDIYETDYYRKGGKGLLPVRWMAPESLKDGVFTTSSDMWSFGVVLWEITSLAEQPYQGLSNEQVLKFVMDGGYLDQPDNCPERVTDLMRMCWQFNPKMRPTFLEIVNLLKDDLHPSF
# Chain of ALK (Q9UM73 with tags, fused parts or gaps): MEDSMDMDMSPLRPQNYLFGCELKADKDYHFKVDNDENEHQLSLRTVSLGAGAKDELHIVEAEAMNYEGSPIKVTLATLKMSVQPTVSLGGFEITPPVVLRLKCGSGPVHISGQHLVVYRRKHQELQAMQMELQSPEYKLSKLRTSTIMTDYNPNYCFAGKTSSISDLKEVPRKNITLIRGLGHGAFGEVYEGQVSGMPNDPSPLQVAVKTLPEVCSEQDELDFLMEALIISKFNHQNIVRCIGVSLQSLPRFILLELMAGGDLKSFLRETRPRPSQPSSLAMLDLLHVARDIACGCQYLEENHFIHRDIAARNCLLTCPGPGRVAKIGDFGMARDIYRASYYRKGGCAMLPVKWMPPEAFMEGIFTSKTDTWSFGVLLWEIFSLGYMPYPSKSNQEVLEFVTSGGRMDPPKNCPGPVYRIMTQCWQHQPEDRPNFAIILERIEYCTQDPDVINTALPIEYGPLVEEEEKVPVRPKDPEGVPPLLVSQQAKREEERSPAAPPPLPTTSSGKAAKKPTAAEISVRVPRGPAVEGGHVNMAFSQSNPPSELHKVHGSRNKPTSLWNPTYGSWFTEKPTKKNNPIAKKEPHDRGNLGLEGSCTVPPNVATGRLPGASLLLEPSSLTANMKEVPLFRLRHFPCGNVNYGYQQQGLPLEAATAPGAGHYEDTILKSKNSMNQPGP
structure (smiles),measurement,setting,value
CCCC(=O)Nc1ccc(OCC(O)CNC(C)C)c(C(C)=O)c1 (stereo not shown) [Acebutolol],"% Protein Bound, Mean",[1],19.2%
same,"% Protein Bound, 1st/2nd",[1],21.4% and 16.9%
Cc1ccc(F)cc1C[C@H](C)Nc1cc[nH]c(=O)c1-c1nc2cc3c(cc2[nH]1)C(=O)N(CCN1CCCC1)C3 [drawing 360],IC50,"IRK; Table 3A, read-out: Cell Free IC50 IRK",254 nM
same,CLint scaled,"[2]; Table 3A, mouse liver microsomes, read-out: CL MLM",52.9 mL/min/kg
same,IC50,U937,> 3000 nM
same,IC50,"ALK; Table 3A, read-out: Cell Free IC50 ALK",2 nM
same,CLint scaled,"[3]; Table 3A, human liver microsomes, read-out: CL HLM",< 5.8 mL/min/kg
same,IC50,"TRKA; Table 3A, read-out: Cell Free IC50 TRKA",2 nM
same,IC50,Karpas299,81 nM
Cc1ccc(F)cc1C[C@H](C)Nc1cc[nH]c(=O)c1-c1nc2cc3c(cc2[nH]1)C(=O)N(CCN1CCCC1)C3 [drawing 368],half-life,[2],13.1 min
same,microsomal CLint,[2],52.9 µL/min/mg
same,half-life,[4],8.71 min
same,microsomal CLint,[4],79.6 µL/min/mg
same,IC50,ALK; [7],2 nM
same,half-life,[3],> 20 min
same,microsomal CLint,[3],< 5.8 µL/min/mg
CC/C(=C(/CC)c1ccc(O)cc1)c1ccc(O)cc1 [Diethylstilbestrol],Solubility 1st/2nd,[5]; individual data,8.59 μm
same,solubility,"[5]; Tables 9C, 9D, read-out: Solubility Mean",8.6 µM
same,solubility,"[5]; individual data, read-out: Solubility 1st/2nd",8.6 µM
same,logD,"[6]; read-out: Partition Coefficient Log D, Weighed Average of Three Replicates",> 5
O=C1NC(=O)C(c2ccccc2)(c2ccccc2)N1 [Phenytion],"Partition Coefficient Log D, Weighed Average of Three Replicates",[6],2.34
Cc1ccc(F)cc1C[C@H](C)Nc1cc[nH]c(=O)c1-c1nc2cc3c(cc2[nH]1)CN(CCN(C)C)C3=O [drawing 316],IC50,"IRK; Table 1, read-out: IRK IC50",100 to 250 nM
same,IC50,"ALK; Table 1, read-out: ALK IC50",< 10 nM
same,IC50,IGF1R,100 to 250 nM
same,IC50,"TRKA; Table 1, read-out: TRKA IC50",< 10 nM
Cc1c(F)cccc1C[C@H](C)Nc1cc[nH]c(=O)c1-c1nc2cc3c(cc2[nH]1)C(=O)N(CCN1CCCC1)C3,IC50,"IRK; Table 1, read-out: IRK IC50",100 to 250 nM
same,IC50,"ALK; Table 1, read-out: ALK IC50",10 to 100 nM
same,IC50,IGF1R,250 to 1000 nM
same,IC50,"TRKA; Table 1, read-out: TRKA IC50",< 10 nM
CC(=O)CC(c1ccccc1)c1c(O)c2ccccc2oc1=O (stereo not shown) [Warfarin],"% Protein Bound, Mean",[1],99.2%
same,"% Protein Bound, 1st/2nd",[1],99.2%
C[C@@H](Cc1cc(F)cc(F)c1F)Nc1cc[nH]c(=O)c1-c1nc2cc3c(cc2[nH]1)CN(CCN1CCCC1)C3=O [drawing 369],half-life,[2],22.1 min
same,microsomal CLint,[2],31.4 µL/min/mg
same,half-life,[4],5 min
same,microsomal CLint,[4],138 µL/min/mg
same,IC50,ALK; [7],5 nM
same,half-life,[3],> 120 min
same,microsomal CLint,[3],< 5.8 µL/min/mg
C[C@@H](Cc1c(F)c(F)cc(F)c1F)Nc1cc[nH]c(=O)c1-c1nc2cc3c(cc2[nH]1)CN(CCN1CCCC1)C3=O [drawing 370],half-life,[2],29 min
same,microsomal CLint,[2],23.9 µL/min/mg
same,half-life,[4],4.36 min
same,microsomal CLint,[4],159 µL/min/mg
same,IC50,ALK; [7],3 nM
same,half-life,[3],> 120 min
same,microsomal CLint,[3],< 5.8 µL/min/mg
O=C1c2cc3nc(-c4c(NC[C@@H](O)c5cccc(Cl)c5)cc[nH]c4=O)[nH]c3cc2C(=O)N1CCN1CCCC1,IC50,"IRK; Table 1, read-out: IRK IC50",100 to 250 nM
same,IC50,"ALK; Table 1, read-out: ALK IC50",10 to 100 nM
same,IC50,IGF1R,10 to 100 nM
same,IC50,"TRKA; Table 1, read-out: TRKA IC50",10 to 100 nM
Cc1cccc(C)c1C[C@H](C)Nc1cc[nH]c(=O)c1-c1nc2cc3c(cc2[nH]1)C(=O)N(CCN1CCCC1)C3,IC50,"IRK; Table 1, read-out: IRK IC50",> 1000 nM
same,IC50,"ALK; Table 1, read-out: ALK IC50",10 to 100 nM
same,IC50,IGF1R,> 1000 nM
same,IC50,"TRKA; Table 1, read-out: TRKA IC50",< 10 nM
O=C1NC(=O)c2cc3[nH]c(-c4c(NC[C@@H](O)c5cccc(Cl)c5)cc[nH]c4=O)nc3cc21,IC50,"IRK; Table 1, read-out: IRK IC50",> 1000 nM
same,IC50,"ALK; Table 1, read-out: ALK IC50",> 1000 nM
same,IC50,IGF1R,250 to 1000 nM
same,IC50,"TRKA; Table 1, read-out: TRKA IC50",100 to 250 nM
Cc1ccc(F)cc1C[C@H](C)Nc1cc[nH]c(=O)c1-c1nc2cc3c(cc2[nH]1)C(=O)N(CCN1CCCC1)C3 [drawing 303],IC50,"IRK; Table 1, read-out: IRK IC50",100 to 250 nM
same,IC50,"ALK; Table 1, read-out: ALK IC50",< 10 nM
same,IC50,IGF1R,100 to 250 nM
same,IC50,"TRKA; Table 1, read-out: TRKA IC50",< 10 nM
